Entries after “also recorded” stand apart in the source; their conditions may differ.
Tested on: TNBS-induced chronic colitis
Assay: TNBS-induced chronic colitis model
Format: in vivo, rat
Conditions: sulfasalazine 100 mg/kg/day p.o.
Description: On day 0, rats were weighed, given respective treatments of either sulfasalazine (100 mg/kg in olive oil p.o.), compound 52 (10 mg/kg in olive oil), or vehicle (500 l olive oil p.o.), and fasted for 24 h with water supplied ad libitum. The next day (day 1), rats were weighed, dosed with respective compound, and anesthetized with isofluorane. A polyethylene catheter was inserted intrarectally (8 cm). Control and drug-treated animals received an intracolonic dose of TNBS (80 mg/kg in saline and 250 l, 50% ethanol in water) (Fiorucci at al., 2001). Sham animals received vehicle only, with TNBS replaced by equivolume water. Rats were maintained in an inclined position (40°) for 30 min, then allowed to recover with food and water supplied. Rats were dosed daily with the respective compound, weighed, and scored for general health and disease progression. All rats were sacrificed on day 8 of experimentation unless they were sacrificed earlier. Disease progression and post-mortem colonic histopathology was scored by the following methods. PAR2 and tryptase co-localization were investigated by using immunohistochemistry.
DAI for both acute and chronic models was assessed and scored by an expert blinded to treatments. Scores incorporated mobility, gastrointestinal pathology, discomfort, and generalized sickness behaviour criteria (each scored 0-3). Any animal that reached stage 3 in any criteria was euthanized by CO2 inhalation and recorded as a disease-related mortality. Scores were summed and expressed as total disease score (maximum 12). DAI was measured at endpoint only (10 h) in the acute study and daily in the chronic TNBS study.
Colons were dissected post-mortem and given a macroscopic disease score based on that described previously (Bobin-Dubigeon et al., 2001) with some minor alterations (maximal score 14). The entire colon length was removed between the ileocolic and colorectal junction. Length and maximal distension width were measured. Sections of affected colon were taken for biochemical analysis, histology, and wet/dry weight.

SMILES: CC[C@H](C)[C@@H](NC(=O)[C@H](CC1CCCCC1)NC(=O)c1ccno1)C(=O)N1CCC2(C=Cc3ccccc32)CC1 [Compound 52]
- chronic colitis: mortality and pathology (colon obstruction, ulceration, wall thickness, myeloperoxidase release) (52 10 mg/kg/day p.o.): ameliorated; also recorded: more effectively than the clinically used drug sulfasalazine
- TNBS-mediated mortality (52 10 mg/kg/day): 8.3%
- DAI compared with TNBS-controls (from day 2 onward, 52 10 mg/kg/day): marked improvements in DAI; also recorded: almost complete recovery

Source: patent US9868763B2, “Modulators of protease activated receptors” (The University of Queensland, priority 2011, dated 2018)
